Our source for the EC50 and IC50 values is patent publication US12110294B2, “CD73 compounds” (Gilead Sciences, Inc., priority 2020, dated 2024).

Assay [1] addresses T1, CD73 activity in MDA-MB-231-GFP cells (Homo sapiens, UniProt P21589).
T1 construct: endogenous in cells; host or cells: MDA-MB-231-GFP cells
T1 sequence (P21589 27-549): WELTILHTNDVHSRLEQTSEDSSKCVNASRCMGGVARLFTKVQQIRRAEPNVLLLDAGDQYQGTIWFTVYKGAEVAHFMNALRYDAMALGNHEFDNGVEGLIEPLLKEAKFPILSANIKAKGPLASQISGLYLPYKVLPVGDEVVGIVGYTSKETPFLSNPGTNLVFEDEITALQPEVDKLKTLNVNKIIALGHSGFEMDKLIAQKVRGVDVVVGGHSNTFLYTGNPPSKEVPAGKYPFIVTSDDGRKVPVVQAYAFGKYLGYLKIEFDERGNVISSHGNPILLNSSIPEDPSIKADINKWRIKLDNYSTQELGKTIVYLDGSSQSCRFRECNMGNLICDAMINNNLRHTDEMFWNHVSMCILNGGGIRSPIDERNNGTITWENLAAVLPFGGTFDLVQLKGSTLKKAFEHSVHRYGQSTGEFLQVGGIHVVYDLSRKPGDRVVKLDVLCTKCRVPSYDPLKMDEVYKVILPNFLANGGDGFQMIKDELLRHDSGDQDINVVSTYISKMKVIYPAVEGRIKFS
The experiment in a line: MDA-MB-231 Cell Based CD73 Activity Assay. As to conditions: 10000 cells per well, RPMI medium with 10% human plasma, overnight compound treatment, AMP 200 μM. Here is the method: MDA-MB-231 Cell Based CD73 Activity Assay
MDA-MB-231-GFP cells were seeded in 384-well plates (Greiner 781946) at a density of 10000 cells per well in 50 μL of RPMI medium with 10% HP (human plasma). Cells were plated into assay plate with compounds pre-spotted, for an overnight compound treatment. 50 μL of 400 μM AMP (final concentration 200 μM) using a Bio-tek dispenser. Plates were incubated for 100 mins. […] The samples were run using Rapid fire.

The target in assay [2] is T2, CD73 (Homo sapiens, UniProt P21589).
T2 construct: purchased R&D system
T2 sequence (P21589 27-549): T1 sequence (P21589 27-549)
The assay can be described thus: CD73 Biochemical IC50 Assay. As to conditions: final AMP 15 uM, final CD73 0.3 nM, 25 mM Tris pH 7.4, 5 mM MgCl2, no phosphate. Here is the method:
CD73 Biochemical IC50 Assay
Compound serial dilutions were pre-spotted into Thermo Nunc assay plate. 50 μL CD73 enzyme buffer (CD73 purchased from R&D system=0.6 nM, 25 mM Tris, pH 7.4, 5 mM MgCl2) was added into the assay plate and incubated for 15 mins. […] The samples were run using Rapid fire.

In assay [3] the target is T2, CD73. The class given is biochemical. As to conditions: 1 mM NaH2PO4 in enzyme buffer, final AMP 15 uM, final CD73 0.3 nM.
Assay [4] has as its target T1, CD73 activity in MDA-MB-231-GFP cells. The assay can be described thus: MDA-MB-231 Cell Based CD73 Activity Assay (DMEM). As to conditions: 3000 cells per well, DMEM medium with 10% human plasma, overnight compound treatment, AMP 200 uM.

One may read the EC50 as the concentration needed to bring the measured effect to its halfway point. One may read the IC50 as the concentration that gives 50% inhibition.

Like-named read-outs stand apart in the source and are kept apart here. A value given as a limit tells only on which side of the number the result lay.

Consider `O=c1[nH]cc(-c2cc([C@@H]3C[C@H]3c3ccccc3F)c3nccn3n2)c(=O)[nH]1` (racemic) [Example 28, 5-(8-((1S,2S)-2-(2-fluorophenyl)cyclopropyl)imidazo[1,2-b]pyridazin-6-yl)pyrimidine-2,4(1H,3H)-dione and 5-(8-((1R,2R)-2-(2-fluorophenyl)cyclopropyl)imidazo[1,2-b]pyridazin-6-yl)pyrimidine-2,4(1H,3H)-dione], for which it took 3.59 nM to reach a half-maximal effect in assay [1] (EC50). This compound gave an IC50 in assay [2] of 16.8 nM.

Take `O=c1[nH]cc(-c2cc([C@H]3C[C@@H]3c3cccc(F)c3)c3nccn3n2)c(=O)[nH]1` (racemic) [Example 29, 5-(8-((1S,2S)-2-(3-fluorophenyl)cyclopropyl)imidazo[1,2-b]pyridazin-6-yl)pyrimidine-2,4(1H,3H)-dione and 5-(8-((1R,2R)-2-(3-fluorophenyl)cyclopropyl)imidazo[1,2-b]pyridazin-6-yl)pyrimidine-2,4(1H,3H)-dione]: in assay [1], the EC50 was 7.08 nM. In assay [2], 16.3 nM corresponded to half-maximal inhibition (IC50).

`O=c1[nH]cc(-c2cc([C@@H]3C[C@H]3c3ccc(F)cc3)c3nccn3n2)c(=O)[nH]1` (racemic) [Example 30, 5-(8-((1S,2S)-2-(4-fluorophenyl)cyclopropyl)imidazo[1,2-b]pyridazin-6-yl)pyrimidine-2,4(1H,3H)-dione and 5-(8-((1R,2R)-2-(4-fluorophenyl)cyclopropyl)imidazo[1,2-b]pyridazin-6-yl)pyrimidine-2,4(1H,3H)-dione]: the IC50 in assay [3] was found to be 2.08 nM; in assay [2] it was 2.36 nM. For the same compound, the EC50 turned out to be 2.56 nM in assay [1] and 5.11 nM in assay [4].

As for `O=c1[nH]cc(-c2cc([C@@H]3C[C@H]3c3ccc(F)cc3F)c3nccn3n2)c(=O)[nH]1` (racemic) [Example 31, 5-(8-((1S,2S)-2-(2,4-difluorophenyl)cyclopropyl)imidazo[1,2-b]pyridazin-6-yl)pyrimidine-2,4(1H,3H)-dione and 5-(8-((1R,2R)-2-(2,4-difluorophenyl)cyclopropyl)imidazo[1,2-b]pyridazin-6-yl)pyrimidine-2,4(1H,3H)-dione], the IC50 in assay [3] is 0.93 nM; in assay [2] it was 5.49 nM. In addition, the EC50 in assay [1] was 3.84 nM; in assay [4] it was 4.83 nM.

Consider `O=c1[nH]cc(-c2cc([C@@H]3C[C@H]3c3cccc(F)c3F)c3nccn3n2)c(=O)[nH]1` (racemic) [Example 32, 5-(8-((1S,2S)-2-(2,3-difluorophenyl)cyclopropyl)imidazo[1,2-b]pyridazin-6-yl)pyrimidine-2,4(1H,3H)-dione and 5-(8-((1R,2R)-2-(2,3-difluorophenyl)cyclopropyl)imidazo[1,2-b]pyridazin-6-yl)pyrimidine-2,4(1H,3H)-dione], for which, in assay [1], a half-maximal effect (EC50) was put at 6.84 nM. In assay [2], this compound registered an IC50 of 18.6 nM.

Regarding `O=c1[nH]cc(-c2cc([C@@H]3C[C@H]3c3ccc(F)c(F)c3F)c3nccn3n2)c(=O)[nH]1` (racemic) [Example 34, 5-(8-((1S,2S)-2-(2,3,4-trifluorophenyl)cyclopropyl)imidazo[1,2-b]pyridazin-6-yl)pyrimidine-2,4(1H,3H)-dione and 5-(8-((1R,2R)-2-(2,3,4-trifluorophenyl)cyclopropyl)imidazo[1,2-b]pyridazin-6-yl)pyrimidine-2,4(1H,3H)-dione], the EC50 in assay [1] was determined as 11.3 nM. Also, the IC50 in assay [2] is 18.2 nM.

`O=c1[nH]cc(-c2cc([C@@H]3C[C@H]3c3cc(F)c(F)c(F)c3)c3nccn3n2)c(=O)[nH]1` (racemic) [Example 36, 5-(8-((1S,2S)-2-(3,4,5-trifluorophenyl)cyclopropyl)imidazo[1,2-b]pyridazin-6-yl)pyrimidine-2,4(1H,3H)-dione and 5-(8-((1R,2R)-2-(3,4,5-trifluorophenyl)cyclopropyl)imidazo[1,2-b]pyridazin-6-yl)pyrimidine-2,4(1H,3H)-dione] registered an EC50 in assay [1] of 6.51 nM. The compound further showed an IC50 in assay [2] of 24.2 nM.

In turn, `O=c1[nH]cc(-c2cc([C@@H]3C[C@H]3c3cccc(Cl)c3)c3nccn3n2)c(=O)[nH]1` (racemic) [Example 38, 5-(8-((1S,2S)-2-(3-chlorophenyl)cyclopropyl)imidazo[1,2-b]pyridazin-6-yl)pyrimidine-2,4(1H,3H)-dione and 5-(8-((1R,2R)-2-(3-chlorophenyl)cyclopropyl)imidazo[1,2-b]pyridazin-6-yl)pyrimidine-2,4(1H,3H)-dione] displayed an EC50 in assay [1] of 7.29 nM. In assay [2], this compound had a 50% inhibitory concentration (IC50) of 14.3 nM.

On to `N#Cc1cc([C@@H]2C[C@H]2c2cc(-c3c[nH]c(=O)[nH]c3=O)nn3ccnc23)ccc1F` (racemic) [Example 64, 5-((2S,2S)-2-(6-(2,4-dioxo-1,2,3,4-tetrahydropyrimidin-5-yl)imidazo[1,2-b]pyridazin-8-yl)cyclopropyl)-2-fluorobenzonitrile and 54(1R,2R)-2-(6-(2,4-dioxo-1,2,3,4-tetrahydropyrimidin-5-yl)imidazo[1,2-b]pyridazin-8-yl)cyclopropyl)-2-fluorobenzonitrile], for which the IC50 turned out to be 1.5 nM in assay [3] and 14.7 nM in assay [2].

In assay [1], `O=c1[nH]cc(-c2cc([C@H]3C[C@@H]3c3ccccc3)c3ncc(F)n3n2)c(=O)[nH]1` (racemic) [Example 87, 5-[3-fluoro-8-[(1S,2S)-2-phenylcyclopropyl]imidazo[1,2-b]pyridazin-6-yl]-1H-pyrimidine-2,4-dione and 5-[3-fluoro-8-[(1R,2R)-2-phenylcyclopropyl]imidazo[1,2-b]pyridazin-6-yl]-1H-pyrimidine-2,4-dione] returned an EC50 of 3.24 nM. The same compound returned an IC50 in assay [2] of 15.7 nM.

In assay [1], `O=c1[nH]cc(-c2cc([C@H]3C[C@@H]3c3ccccc3)c3nccn3n2)c(=O)[nH]1` (racemic) [Example 104, 5-(8-((2S,2S)-2-phenylcyclopropyl)imidazo[1,2-b]pyridazin-6-yl)pyrimidine-2,4-(1H,3H)-dione and 5-(8-((1R,2R)-2-phenylcyclopropyl)imidazo[1,2-b]pyridazin-6-yl)pyrimidine-2,4-(1H,3H)-dione] showed an EC50 of 23.2 nM. Further, the IC50 in assay [2] came out at 196 nM.

In turn, `N#Cc1ccccc1[C@H]1C[C@@H]1c1cc(-c2c[nH]c(=O)[nH]c2=O)nn2ccnc12` [Example 49, 2-((1S,2S)-2-(6-(2,4-dioxo-1,2,3,4-tetrahydropyrimidin-5-yl)imidazo[1,2-b]pyridazin-8-yl)cyclopropyl)benzonitrile] had an EC50 in assay [1] of 19 nM. In addition, half-maximal inhibition in assay [2] (IC50) required 17.5 nM.

On to `O=c1[nH]cc(-c2cc(N3C[C@@H](F)[C@@H](F)C3)c3nccn3n2)c(=O)[nH]1` [Example 77, 5-[8-[(3S,4R)-3,4-difluoropyrrolidin-1-yl]imidazo[1,2-b]pyridazin-6-yl]-1H-pyrimidine-2,4-dione and 5-[8-[(3R,4S)-3,4-difluoropyrrolidin-1-yl]imidazo[1,2-b]pyridazin-6-yl]-1H-pyrimidine-2,4-dione], for which the IC50 in assay [3] amounted to 3.5 nM; in assay [2], 22.6 nM.

In assay [1], `COc1ccc([C@H]2C[C@@H]2c2cc(-c3c[nH]c(=O)[nH]c3=O)nn3ccnc23)cc1` [Example 112, 5-(8-((1S,2S)-2-(4-methoxyphenyl)cyclopropyl)imidazo[1,2-b]pyridazin-6-yl)pyrimidine-2,4(1H,3H)-dione] displayed an EC50 of 2.23 nM. The compound further yielded an IC50 in assay [2] of 20.5 nM.

Take `COC(=O)c1ccccc1[C@H]1C[C@@H]1c1cc(-c2c[nH]c(=O)[nH]c2=O)nn2ccnc12` [Example 113, methyl 2-((1S,2S)-2-(6-(2,4-dioxo-1,2,3,4-tetrahydropyrimidin-5-yl)imidazo[1,2-b]pyridazin-8-yl)cyclopropyl)benzoate]: the EC50 in assay [1] is 210 nM. The compound further showed an IC50 in assay [2] of 147 nM.

`COc1cccc([C@H]2C[C@@H]2c2cc(-c3c[nH]c(=O)[nH]c3=O)nn3ccnc23)c1` [Example 114, 5-(8-((1S,2S)-2-(3-methoxyphenyl)cyclopropyl)imidazo[1,2-b]pyridazin-6-yl)pyrimidine-2,4(1H,3H)-dione] yielded an EC50 in assay [1] of 5.38 nM. Further, in assay [2], the IC50 was 31.1 nM.

The compound `O=c1[nH]cc(-c2cc(N3CCC[C@H]3c3ccc(F)cc3)c3nccn3n2)c(=O)[nH]1` [Example 116, (S)-5-(8-(2-(4-fluorophenyl)pyrrolidin-1-yl)imidazo[1,2-b]pyridazin-6-yl)pyrimidine-2,4(1H,3H)-dione] came in with an EC50 in assay [1] of 718 nM. This compound also gave an IC50 in assay [2] greater than 2500 nM.
